Reference: publication PMC6099232, “High V‐PPase activity is beneficial under high salt loads, but detrimental without salinity” (The New Phytologist, 2018)

What was measured:
NbVHP2 = target: T1, NbVHP2 (Nicotiana benthamiana, UniProt A0A238MN04); experiment: whole-vacuole patch clamp, PPi-induced proton pump current; type: biochemical; conditions: 150 μM PPi, 0 mV; 5 mM MgCl2, 100 mM K-gluconate, 0.1 mM CaCl2, pH 7.5; endogenous NbVHP background
T1 construct: gene NbPPA1.1; full-length cDNA, untagged, ubiquitin promoter in pCambia2200 with separate free eGFP; transient overexpression in N. benthamiana mesophyll; vacuoles also hold endogenous NbVHP1/2
T1 sequence (A0A238MN04 1-766): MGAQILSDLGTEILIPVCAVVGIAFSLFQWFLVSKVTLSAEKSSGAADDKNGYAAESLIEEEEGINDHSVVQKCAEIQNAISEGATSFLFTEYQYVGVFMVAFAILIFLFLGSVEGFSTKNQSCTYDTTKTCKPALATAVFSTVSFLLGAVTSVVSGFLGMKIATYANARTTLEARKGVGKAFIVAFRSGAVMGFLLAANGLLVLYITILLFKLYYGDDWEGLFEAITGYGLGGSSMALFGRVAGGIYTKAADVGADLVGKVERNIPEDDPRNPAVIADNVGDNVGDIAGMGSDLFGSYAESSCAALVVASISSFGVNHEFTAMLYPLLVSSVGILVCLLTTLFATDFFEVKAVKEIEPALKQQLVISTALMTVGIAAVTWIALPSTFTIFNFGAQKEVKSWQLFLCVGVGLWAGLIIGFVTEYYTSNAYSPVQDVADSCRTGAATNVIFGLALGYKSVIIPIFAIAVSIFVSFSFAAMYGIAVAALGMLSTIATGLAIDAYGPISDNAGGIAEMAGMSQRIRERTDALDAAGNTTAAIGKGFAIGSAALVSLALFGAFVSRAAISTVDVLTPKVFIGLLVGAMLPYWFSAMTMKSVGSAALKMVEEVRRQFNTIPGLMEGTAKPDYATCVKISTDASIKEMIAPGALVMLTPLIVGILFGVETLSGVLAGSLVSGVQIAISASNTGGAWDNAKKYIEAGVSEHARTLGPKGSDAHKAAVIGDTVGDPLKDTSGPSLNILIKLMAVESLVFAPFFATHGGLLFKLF

IPP1 = target: T2, IPP1 (Saccharomyces cerevisiae, UniProt P00817); experiment: PPi hydrolysis activity of leaf protein extract; type: biochemical; conditions: activity compared with control
T2 construct: soluble PPase, cDNA under ubiquitin promoter in pCambia2200, transiently overexpressed in N. benthamiana leaves
T2 sequence (P00817 2-287): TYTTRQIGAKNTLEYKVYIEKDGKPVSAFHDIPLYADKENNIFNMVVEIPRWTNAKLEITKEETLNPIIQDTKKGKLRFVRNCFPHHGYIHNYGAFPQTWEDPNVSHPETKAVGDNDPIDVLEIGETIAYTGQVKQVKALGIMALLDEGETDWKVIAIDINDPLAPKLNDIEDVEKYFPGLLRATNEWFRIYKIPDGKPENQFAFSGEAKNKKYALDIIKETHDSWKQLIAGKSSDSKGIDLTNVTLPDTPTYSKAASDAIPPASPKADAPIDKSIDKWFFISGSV

[1] = substrate: O=P(O)(O)OP(=O)(O)O; experiment: whole-vacuole patch clamp, PPi-induced proton pump current; type: biochemical, Nicotiana benthamiana; conditions: 0 mV, cytosolic pH 7.5, global fit of luminal pH 7.5 and 5.5, 5 mM MgCl2, 100 mM K-gluconate, 0.1 mM CaCl2, endogenous NbVHP background
[2] = substrate: O=P(O)(O)OP(=O)(O)O; experiment: as above; type: biochemical, Arabidopsis thaliana; conditions: 0 mV, 5 mM MgCl2, 100 mM K-gluconate, 0.1 mM CaCl2, pH 7.5, about one-third of current from endogenous NbVHP1/2

For `O=P(O)(O)OP(=O)(O)O` [PPi, pyrophosphate], the “whole-vacuole patch clamp, PPi-induced proton pump current” value (NbVHP2) was “almost four times higher in vacuoles from NbVHP1‐ or NbVHP2‐overexpressing mesophyll cells” and the “PPi hydrolysis activity of leaf protein extract” value (IPP1) was “IPP1‐transformed N. benthamiana leaves exhibited a hydrolytic PPi activity”.

B1: NbVHP1 (Nicotiana benthamiana) (protein)
chain: MGAALLPDLGTEIVIPVCAVIGIVFSLVQWYIVSNVKLTPESSSPSNNGKNGYGDYLIEEEEGINDQNVVVKCAEIQNAISEGATSFLFTEYQYVGIFMIAFAILIFLFLGSVEGFSTKSQPCTYNKEKLCKPALATAIFSTVSFLLGAITSVVSGFLGMKVATYANARTTLEARKGVGKAFIVAFRSGAVMGFLLAANGLLVLYIAINLFKLYYGDDWEGLFEAITGYGLGGSSMALFGRVGGGIYTKAADVGADLVGKVERNIPEDDPRNPAVIADNVGDNVGDIAGMGSDLFGSYAEASCAALVVASISSFGINHEFTAMLYPLLISSMGVLICLITTLFATDFFEIKAVKEIEPALKNQLIISTALMTVGIAIVTWTCLPSSFTIFNFGAQKVVKNWQLFLCVAVGLWAGLIIGFVTEYYTSNTYSPVQDVADSCRTGAATNVIFGLALGYKSVIIPIFAIAIAIFVSFSFAAMYGIAVAALGMLSTIATGLAIDAYGPISDNAGGIAEMAGMSHRIRERTDALDAAGNTTAAIGKGFAIGSAALVSLALFGAFVSRAAITTVDVLTPQVFIGLIVGAMLPYWFSAMTMKSVGSAALKMVEEVRRQFNTIPGLMEGTAKPDYATCVKISTDASIKEMIPPGALVMLTPLIVGIFFGVETLSGVLAGALVSGVQIAISASNTGGAWDNAKKYIEAGASEHARTLGPKGSEPHKAAVIGDTIGDPLKDTSGPSLNILIKLMAVESLVFAPFFATHGGLLFKIF
notes: full-length cDNA, untagged, ubiquitin promoter in pCambia2200 with separate free eGFP; transient overexpression in N. benthamiana mesophyll; vacuoles also hold endogenous NbVHP1/2; homodimer of c; 80 kDa polypeptide
B1 was tested, and the Km [1] was 65 ± 9 µM.

B2: AtVHP1 (Arabidopsis thaliana) (protein)
chain: MVAPALLPELWTEILVPICAVIGIAFSLFQWYVVSRVKLTSDLGASSSGGANNGKNGYGDYLIEEEEGVNDQSVVAKCAEIQTAISEGATSFLFTEYKYVGVFMIFFAAVIFVFLGSVEGFSTDNKPCTYDTTRTCKPALATAAFSTIAFVLGAVTSVLSGFLGMKIATYANARTTLEARKGVGKAFIVAFRSGAVMGFLLAASGLLVLYITINVFKIYYGDDWEGLFEAITGYGLGGSSMALFGRVGGGIYTKAADVGADLVGKIERNIPEDDPRNPAVIADNVGDNVGDIAGMGSDLFGSYAEASCAALVVASISSFGINHDFTAMCYPLLISSMGILVCLITTLFATDFFEIKLVKEIEPALKNQLIISTVIMTVGIAIVSWVGLPTSFTIFNFGTQKVVKNWQLFLCVCVGLWAGLIIGFVTEYYTSNAYSPVQDVADSCRTGAATNVIFGLALGYKSVIIPIFAIAISIFVSFSFAAMYGVAVAALGMLSTIATGLAIDAYGPISDNAGGIAEMAGMSHRIRERTDALDAAGNTTAAIGKGFAIGSAALVSLALFGAFVSRAGIHTVDVLTPKVIIGLLVGAMLPYWFSAMTMKSVGSAALKMVEEVRRQFNTIPGLMEGTAKPDYATCVKISTDASIKEMIPPGCLVMLTPLIVGFFFGVETLSGVLAGSLVSGVQIAISASNTGGAWDNAKKYIEAGVSEHAKSLGPKGSEPHKAAVIGDTIGDPLKDTSGPSLNILIKLMAVESLVFAPFFATHGGILFKYF
notes: untagged cDNA, ubiquitin promoter in pCambia2200 with separate free eGFP; transient overexpression in N. benthamiana mesophyll; about one-third of the current from endogenous NbVHP1/2
Work on B2 yielded a Km [2] of 75 ± 11 µM.
